Where two headings read alike, the source gives them in different places.
Assay: Toxicokinetics, plasma LPM3480392 after intravenous administration
Format: in vivo, Sprague Dawley (SD) rats
Settings: for concentration at 2 min / AUC(0-t): Sprague-Dawley, rat, plasma; for concentration at 2 min: intravenous; for AUC(0-t): iv
Method: Blood samples from animals in LPM3480392 groups were collected at predose and 2 min, 30 min, 1 h and 4 h postdose of the 1st dosing on Days 1 and 28; at 2 min and 4 h postdose of the 2nd dosing on Days 1 and 28; at 2 min, 1 h and 4 h postdose the 3rd dosing on Days 1 and 28. Animals in control group were sampled at predose and 2 min postdose of the 1st dosing on Days 1 and 28. Approximately 0.36 mL of blood was collected from the jugular vein of surviving TK animals at each time point. Whole blood samples were anticoagulated with EDTA-K2 and centrifuged at 2°C–8°C and 1800 × g for 10 min. The harvested plasma was stored below −66°C before the analysis. LC-MS/MS methods (liquid chromatograph/mass spectrometer) were used to detect concentrations of LPM3480392 at each time point. TK parameters (AUC, Cmax, Tmax) were calculated by Phoenix WinNonlin (Pharsight) 8.2. The detection instruments include ultra-performance liquid chromatography (Waters, United States ACQUITY UPLC I -CLASS) and triple quadrupole tandem mass spectrometer (Waters, United States, Xevo TQ-S).

SMILES: Fc1ccc([C@]2(CCNCc3cccc(Cl)c3)CCO[C@]3(CCOC3)C2)nc1 [LPM3480392]
- Accumulation after 28-day repeated dosing (0.6–2.4 mg/kg/day): No accumulation
- Gender difference of mean AUC0–12h in plasma (0.6–2.4 mg/kg/day): no apparent gender difference
- concentration at 2 min (both sexes, 0.6 mg/kg/day, 0.6 mg/kg/day iv, 1st dosing day, F + M, read-out: C2min (The 1st dosing)): 88.3 ± 18.8 ng/mL
- concentration at 2 min (both sexes, 0.6 mg/kg/day, 0.6 mg/kg/day iv, 1st dosing day, F + M, read-out: C2min (The 2nd dosing)): 68.4 ± 12.8 ng/mL
- concentration at 2 min (both sexes, 0.6 mg/kg/day, 0.6 mg/kg/day iv, 1st dosing day, F + M, read-out: C2min (The 3rd dosing)): 60.1 ± 10.4 ng/mL
- concentration at 2 min (both sexes, 0.6 mg/kg/day, 0.6 mg/kg/day iv, 28th dosing day, F + M, read-out: C2min (The 1st dosing)): 87.2 ± 14.7 ng/mL
- concentration at 2 min (both sexes, 0.6 mg/kg/day, 0.6 mg/kg/day iv, 28th dosing day, F + M, read-out: C2min (The 2nd dosing)): 75.4 ± 10.2 ng/mL
- concentration at 2 min (both sexes, 0.6 mg/kg/day, 0.6 mg/kg/day iv, 28th dosing day, F + M, read-out: C2min (The 3rd dosing)): 73.9 ± 10.9 ng/mL
- concentration at 2 min (both sexes, 1.2 mg/kg/day, 1.2 mg/kg/day iv, 1st dosing day, F + M, read-out: C2min (The 1st dosing)): 175 ± 18.6 ng/mL
- concentration at 2 min (both sexes, 1.2 mg/kg/day, 1.2 mg/kg/day iv, 1st dosing day, F + M, read-out: C2min (The 2nd dosing)): 155 ± 29.4 ng/mL
- concentration at 2 min (both sexes, 1.2 mg/kg/day, 1.2 mg/kg/day iv, 1st dosing day, F + M, read-out: C2min (The 3rd dosing)): 148 ± 27 ng/mL
- concentration at 2 min (both sexes, 1.2 mg/kg/day, 1.2 mg/kg/day iv, 28th dosing day, F + M, read-out: C2min (The 1st dosing)): 179 ± 23.2 ng/mL
- concentration at 2 min (both sexes, 1.2 mg/kg/day, 1.2 mg/kg/day iv, 28th dosing day, F + M, read-out: C2min (The 2nd dosing)): 140 ± 31 ng/mL
- concentration at 2 min (both sexes, 1.2 mg/kg/day, 1.2 mg/kg/day iv, 28th dosing day, F + M, read-out: C2min (The 3rd dosing)): 149 ± 24.6 ng/mL
- concentration at 2 min (both sexes, 2.4 mg/kg/day, 2.4 mg/kg/day iv, 1st dosing day, F + M, read-out: C2min (The 1st dosing)): 330 ± 27.6 ng/mL
- concentration at 2 min (both sexes, 2.4 mg/kg/day, 2.4 mg/kg/day iv, 1st dosing day, F + M, read-out: C2min (The 2nd dosing)): 290 ± 23.1 ng/mL
- concentration at 2 min (both sexes, 2.4 mg/kg/day, 2.4 mg/kg/day iv, 1st dosing day, F + M, read-out: C2min (The 3rd dosing)): 229 ± 43.6 ng/mL
- concentration at 2 min (both sexes, 2.4 mg/kg/day, 2.4 mg/kg/day iv, 28th dosing day, F + M, read-out: C2min (The 1st dosing)): 351 ± 61.7 ng/mL
- concentration at 2 min (both sexes, 2.4 mg/kg/day, 2.4 mg/kg/day iv, 28th dosing day, F + M, read-out: C2min (The 2nd dosing)): 323 ± 89.2 ng/mL
- concentration at 2 min (both sexes, 2.4 mg/kg/day, 2.4 mg/kg/day iv, 28th dosing day, F + M, read-out: C2min (The 3rd dosing)): 320 ± 34.2 ng/mL
- AUC(0-t) (both sexes, 0.6 mg/kg/day, 0.6 mg/kg/day iv, 1st dosing day, F + M, read-out: AUC0–12h): 315 ± 43.7 ng·h/mL
- AUC(0-t) (both sexes, 0.6 mg/kg/day, 0.6 mg/kg/day iv, 28th dosing day, F + M, read-out: AUC0–12h): 349 ± 38.2 ng·h/mL
- AUC(0-t) (both sexes, 0.6 mg/kg/day, female + male, 0.6 mg/kg/day, Day 1, read-out: Mean AUC0–12h): 315 ng·h/mL
- AUC(0-t) (both sexes, 0.6 mg/kg/day, female + male, 0.6 mg/kg/day, Day 28, read-out: Mean AUC0–12h): 349 ng·h/mL
- AUC(0-t) (both sexes, 1.2 mg/kg/day, 1.2 mg/kg/day iv, 1st dosing day, F + M, read-out: AUC0–12h): 663 ± 114 ng·h/mL
- AUC(0-t) (both sexes, 1.2 mg/kg/day, 1.2 mg/kg/day iv, 28th dosing day, F + M, read-out: AUC0–12h): 680 ± 74.5 ng·h/mL
- AUC(0-t) (both sexes, 1.2 mg/kg/day, female + male, 1.2 mg/kg/day, Day 1, read-out: Mean AUC0–12h): 663 ng·h/mL
- AUC(0-t) (both sexes, 1.2 mg/kg/day, female + male, 1.2 mg/kg/day, Day 28, read-out: Mean AUC0–12h): 680 ng·h/mL
- AUC(0-t) (both sexes, 2.4 mg/kg/day, 2.4 mg/kg/day iv, 1st dosing day, F + M, read-out: AUC0–12h): 1250 ± 93.6 ng·h/mL
- AUC(0-t) (both sexes, 2.4 mg/kg/day, 2.4 mg/kg/day iv, 28th dosing day, F + M, read-out: AUC0–12h): 1490 ± 169 ng·h/mL
- AUC(0-t) (both sexes, 2.4 mg/kg/day, female + male, 2.4 mg/kg/day, Day 1, read-out: Mean AUC0–12h): 1250 ng·h/mL
- AUC(0-t) (both sexes, 2.4 mg/kg/day, female + male, 2.4 mg/kg/day, Day 28, read-out: Mean AUC0–12h): 1490 ng·h/mL
- Mean AUC0–12h ratio, Day 28 and Day 1 (female + male, 1.2 mg/kg/day): 1.0
- Mean AUC0–12h ratio, Day 28 and Day 1 (female + male, 2.4 mg/kg/day): 1.2
- concentration at 2 min (female, 0.6 mg/kg/day, 0.6 mg/kg/day iv, 1st dosing day, F, read-out: C2min (The 1st dosing)): 78.4 ± 10.9 ng/mL
- concentration at 2 min (female, 0.6 mg/kg/day, 0.6 mg/kg/day iv, 1st dosing day, F, read-out: C2min (The 2nd dosing)): 66.2 ± 12.4 ng/mL
- concentration at 2 min (female, 0.6 mg/kg/day, 0.6 mg/kg/day iv, 1st dosing day, F, read-out: C2min (The 3rd dosing)): 55.5 ± 8.94 ng/mL
- concentration at 2 min (female, 0.6 mg/kg/day, 0.6 mg/kg/day iv, 28th dosing day, F, read-out: C2min (The 1st dosing)): 90.1 ± 8.8 ng/mL
- concentration at 2 min (female, 0.6 mg/kg/day, 0.6 mg/kg/day iv, 28th dosing day, F, read-out: C2min (The 2nd dosing)): 73 ± 12.6 ng/mL
- concentration at 2 min (female, 0.6 mg/kg/day, 0.6 mg/kg/day iv, 28th dosing day, F, read-out: C2min (The 3rd dosing)): 68.5 ± 11.8 ng/mL
- concentration at 2 min (female, 1.2 mg/kg/day, 1.2 mg/kg/day iv, 1st dosing day, F, read-out: C2min (The 1st dosing)): 181 ± 24.8 ng/mL
- concentration at 2 min (female, 1.2 mg/kg/day, 1.2 mg/kg/day iv, 1st dosing day, F, read-out: C2min (The 2nd dosing)): 169 ± 26.2 ng/mL
- concentration at 2 min (female, 1.2 mg/kg/day, 1.2 mg/kg/day iv, 1st dosing day, F, read-out: C2min (The 3rd dosing)): 157 ± 25.5 ng/mL
- concentration at 2 min (female, 1.2 mg/kg/day, 1.2 mg/kg/day iv, 28th dosing day, F, read-out: C2min (The 1st dosing)): 187 ± 20 ng/mL
- concentration at 2 min (female, 1.2 mg/kg/day, 1.2 mg/kg/day iv, 28th dosing day, F, read-out: C2min (The 2nd dosing)): 167 ± 14.1 ng/mL
- concentration at 2 min (female, 1.2 mg/kg/day, 1.2 mg/kg/day iv, 28th dosing day, F, read-out: C2min (The 3rd dosing)): 166 ± 16.1 ng/mL
- concentration at 2 min (female, 2.4 mg/kg/day, 2.4 mg/kg/day iv, 1st dosing day, F, read-out: C2min (The 1st dosing)): 331 ± 25.1 ng/mL
- concentration at 2 min (female, 2.4 mg/kg/day, 2.4 mg/kg/day iv, 1st dosing day, F, read-out: C2min (The 2nd dosing)): 292 ± 33.6 ng/mL
- concentration at 2 min (female, 2.4 mg/kg/day, 2.4 mg/kg/day iv, 1st dosing day, F, read-out: C2min (The 3rd dosing)): 234 ± 52.1 ng/mL
- concentration at 2 min (female, 2.4 mg/kg/day, 2.4 mg/kg/day iv, 28th dosing day, F, read-out: C2min (The 1st dosing)): 356 ± 81.9 ng/mL
- concentration at 2 min (female, 2.4 mg/kg/day, 2.4 mg/kg/day iv, 28th dosing day, F, read-out: C2min (The 2nd dosing)): 387 ± 54.9 ng/mL
- concentration at 2 min (female, 2.4 mg/kg/day, 2.4 mg/kg/day iv, 28th dosing day, F, read-out: C2min (The 3rd dosing)): 323 ± 20.7 ng/mL
- AUC(0-t) (female, 0.6 mg/kg/day, 0.6 mg/kg/day iv, 1st dosing day, F, read-out: AUC0–12h): 319 ± 56 ng·h/mL
- AUC(0-t) (female, 0.6 mg/kg/day, 0.6 mg/kg/day iv, 28th dosing day, F, read-out: AUC0–12h): 331 ± 48.3 ng·h/mL
- AUC(0-t) (female, 1.2 mg/kg/day, 1.2 mg/kg/day iv, 1st dosing day, F, read-out: AUC0–12h): 719 ± 122 ng·h/mL
- AUC(0-t) (female, 1.2 mg/kg/day, 1.2 mg/kg/day iv, 28th dosing day, F, read-out: AUC0–12h): 735 ± 63.4 ng·h/mL
- AUC(0-t) (female, 2.4 mg/kg/day, 2.4 mg/kg/day iv, 1st dosing day, F, read-out: AUC0–12h): 1310 ± 57.9 ng·h/mL
- AUC(0-t) (female, 2.4 mg/kg/day, 2.4 mg/kg/day iv, 28th dosing day, F, read-out: AUC0–12h): 1580 ± 129 ng·h/mL
- concentration at 2 min (male, 0.6 mg/kg/day, 0.6 mg/kg/day iv, 1st dosing day, M, read-out: C2min (The 1st dosing)): 98.1 ± 21.3 ng/mL
- concentration at 2 min (male, 0.6 mg/kg/day, 0.6 mg/kg/day iv, 1st dosing day, M, read-out: C2min (The 2nd dosing)): 70.5 ± 14.7 ng/mL
- concentration at 2 min (male, 0.6 mg/kg/day, 0.6 mg/kg/day iv, 1st dosing day, M, read-out: C2min (The 3rd dosing)): 64.7 ± 10.8 ng/mL
- concentration at 2 min (male, 0.6 mg/kg/day, 0.6 mg/kg/day iv, 28th dosing day, M, read-out: C2min (The 1st dosing)): 84.3 ± 20.2 ng/mL
- concentration at 2 min (male, 0.6 mg/kg/day, 0.6 mg/kg/day iv, 28th dosing day, M, read-out: C2min (The 2nd dosing)): 77.9 ± 8.2 ng/mL
- concentration at 2 min (male, 0.6 mg/kg/day, 0.6 mg/kg/day iv, 28th dosing day, M, read-out: C2min (The 3rd dosing)): 79.4 ± 7.61 ng/mL
- concentration at 2 min (male, 1.2 mg/kg/day, 1.2 mg/kg/day iv, 1st dosing day, M, read-out: C2min (The 1st dosing)): 170 ± 10.7 ng/mL
- concentration at 2 min (male, 1.2 mg/kg/day, 1.2 mg/kg/day iv, 1st dosing day, M, read-out: C2min (The 2nd dosing)): 142 ± 28.9 ng/mL
- concentration at 2 min (male, 1.2 mg/kg/day, 1.2 mg/kg/day iv, 1st dosing day, M, read-out: C2min (The 3rd dosing)): 139 ± 29.2 ng/mL
- concentration at 2 min (male, 1.2 mg/kg/day, 1.2 mg/kg/day iv, 28th dosing day, M, read-out: C2min (The 1st dosing)): 171 ± 26.2 ng/mL

Reference: paper PMC10436550, “Subacute toxicity evaluations of LPM3480392 in rats, a full µ-opioid receptor biased agonist” (Frontiers in Pharmacology, 2023)
